Assay results from the NIST ThermoML archive (doi:10.1016/j.tca.2011.06.020).

Key:
[1] = xn = mol fraction of the nth substance listed; conditions: 101 kPa, Liquid; for speed of sound: Sing-around technique in a fixed-path interferometer; for mass density: Vibrating tube method
[2] = excess molar enthalpy (molar enthalpy of mixing); xn = mol fraction of the nth substance listed; conditions: 308.15 K, 101 kPa, Liquid, Drop calorimetry

Cc1ccccc1N [2-methylaniline] + C1CCOCC1
[1]
Conditions	mass density, 298.15 K [kg/m3]	mass density, 303.15 K [kg/m3]	mass density, 308.15 K [kg/m3]	speed of sound, 298.15 K [m/s]	speed of sound, 303.15 K [m/s]	speed of sound, 308.15 K [m/s]
x1 = 0.0732	890.691	885.73	880.749	1296.4	1274.1	1252.5
x1 = 0.1342	899.769	894.897	890.021	1318.6	1296.8	1275.8
x1 = 0.1768	905.846	900.991	896.174	1334	1312.5	1292
x1 = 0.2207	911.867	907.057	902.258	1349.8	1328.6	1308.5
x1 = 0.2721	918.66	913.86	909.112	1368.2	1347.1	1327.6
x1 = 0.3328	926.351	921.578	916.872	1389.3	1368.7	1349.5
x1 = 0.3562	929.219	924.445	919.758	1397.3	1376.9	1357.8
x1 = 0.3901	933.275	928.536	923.89	1409	1388.5	1369.8
x1 = 0.4288	937.818	933.094	928.469	1421.8	1401.6	1383.1
x1 = 0.4567	940.995	936.325	931.715	1431	1411.1	1392.3
x1 = 0.5014	945.986	941.37	936.823	1445.5	1425.7	1407.2
x1 = 0.5362	949.788	945.194	940.693	1456.6	1437	1418.2
x1 = 0.5982	956.336	951.867	947.455	1475.7	1456.5	1437.6
x1 = 0.6243	959.04	954.607	950.235	1483.6	1464.7	1445.7
x1 = 0.6644	963.103	958.737	954.427	1495.7	1477	1457.6
x1 = 0.7125	967.87	963.596	959.361	1510.2	1491.3	1471.8
x1 = 0.7703	973.454	969.292	965.131	1527.4	1508.7	1488.6
x1 = 0.8025	976.501	972.384	968.276	1537	1518.1	1497.9
x1 = 1	994.351	990.224	986.069	1602.6	1577.8	1558.4

Cc1ccccc1N [2-methylaniline] + CNC=O
[1]
Conditions	mass density, 298.15 K [kg/m3]	mass density, 303.15 K [kg/m3]	mass density, 308.15 K [kg/m3]	speed of sound, 298.15 K [m/s]	speed of sound, 303.15 K [m/s]	speed of sound, 308.15 K [m/s]
x1 = 0.0656	1000.18	995.882	991.55	1454.3	1438.4	1423.3
x1 = 0.1258	1000.98	996.704	992.418	1472.4	1456.3	1440.9
x1 = 0.1673	1001.39	997.124	992.87	1484.1	1467.8	1452.2
x1 = 0.2127	1001.71	997.464	993.254	1496	1479.7	1463.8
x1 = 0.2466	1001.88	997.65	993.459	1504.4	1488.2	1471.9
x1 = 0.2789	1001.99	997.753	993.588	1512.1	1495.7	1479.4
x1 = 0.3081	1002.03	997.811	993.675	1518.6	1502.3	1485.7
x1 = 0.3356	1002.04	997.839	993.709	1524.4	1508.2	1491.4
x1 = 0.3898	1001.96	997.768	993.664	1535.2	1518.9	1501.9
x1 = 0.4383	1001.79	997.624	993.525	1544	1527.6	1510.4
x1 = 0.4802	1001.56	997.416	993.334	1551.1	1534.6	1517.2
x1 = 0.5269	1001.25	997.104	993.02	1558.2	1541.5	1524.1
x1 = 0.5599	1000.97	996.843	992.76	1562.9	1545.9	1528.5
x1 = 0.6006	1000.59	996.484	992.392	1568.2	1551.1	1533.6
x1 = 0.6519	1000.02	995.935	991.837	1574.4	1556.7	1539.2
x1 = 0.7244	999.105	995.043	990.907	1582.2	1563.4	1546
x1 = 0.7904	998.148	994.083	989.937	1588.2	1568.3	1550.9
x1 = 0.8485	997.204	993.14	988.977	1592.8	1571.9	1554.2
x1 = 1	994.351	990.224	986.069	1602.6	1577.8	1558.4

[2]
Conditions	excess molar enthalpy [kcal/mol]
x1 = 0.0486	-0.0402
x1 = 0.0972	-0.0749
x1 = 0.1358	-0.101
x1 = 0.1888	-0.126
x1 = 0.2267	-0.145
x1 = 0.2786	-0.16
x1 = 0.3432	-0.175
x1 = 0.3972	-0.182
x1 = 0.4209	-0.183
x1 = 0.4811	-0.181
x1 = 0.5306	-0.175
x1 = 0.5822	-0.162
x1 = 0.6225	-0.153
x1 = 0.6788	-0.138
x1 = 0.7121	-0.124
x1 = 0.7826	-0.0967
x1 = 0.8127	-0.0858
x1 = 0.8455	-0.0712

CNC=O [N-methylformamide] + C1CCOCC1
[1]
Conditions	mass density, 298.15 K [kg/m3]	mass density, 303.15 K [kg/m3]	mass density, 308.15 K [kg/m3]	speed of sound, 298.15 K [m/s]	speed of sound, 303.15 K [m/s]	speed of sound, 308.15 K [m/s]
x2 = 0	999.004	994.653	990.302	1432.9	1417.7	1402.5
x2 = 0.0822	984.359	979.949	975.601	1411.8	1396.4	1380.7
x2 = 0.1587	971.886	967.407	963.009	1394	1377.9	1361.7
x2 = 0.2344	960.487	955.945	951.454	1377.9	1361	1344.4
x2 = 0.2633	956.359	951.788	947.263	1372.1	1355	1338.1
x2 = 0.3005	951.208	946.607	942.041	1365	1347.4	1330.3
x2 = 0.3572	943.711	939.057	934.409	1354.5	1336.5	1319.1
x2 = 0.3814	940.623	935.944	931.277	1350.3	1332	1314.5
x2 = 0.4163	936.288	931.584	926.867	1344.4	1325.8	1308
x2 = 0.4334	934.212	929.494	924.763	1341.6	1322.9	1305
x2 = 0.4851	928.124	923.354	918.566	1333.4	1314.3	1296.1
x2 = 0.5122	925.036	920.247	915.428	1329.3	1310	1291.6
x2 = 0.5693	918.752	913.91	909.049	1321	1301.3	1282.6
x2 = 0.6064	914.817	909.949	905.053	1315.9	1296	1277
x2 = 0.6571	909.625	904.722	899.79	1309.1	1289	1269.6
x2 = 0.6988	905.507	900.569	895.605	1303.8	1283.5	1263.7
x2 = 0.7315	902.361	897.401	892.421	1299.8	1279.3	1259.3
x2 = 0.7743	898.361	893.366	888.365	1294.7	1273.9	1253.5
x2 = 0.8468	891.856	886.811	881.763	1286.4	1265.1	1244.1

[2]
Conditions	excess molar enthalpy [kcal/mol]
x2 = 0.0662	0.00815
x2 = 0.1805	0.0293
x2 = 0.2254	0.0372
x2 = 0.2892	0.0493
x2 = 0.3252	0.0564
x2 = 0.3743	0.064
x2 = 0.4016	0.0666
x2 = 0.4724	0.0749
x2 = 0.5114	0.0772
x2 = 0.5562	0.0781
x2 = 0.5923	0.0776
x2 = 0.6242	0.0747
x2 = 0.6675	0.0727
x2 = 0.7153	0.0658
x2 = 0.7576	0.0603
x2 = 0.7901	0.0533
x2 = 0.8152	0.0482
x2 = 0.8676	0.0367
